In PubChem BioAssay AID1259375 (The Scripps Research Institute Molecular Screening Center, 2018) one finds IC50 data, which are given here for 62 compounds.

The test deals with Microphthalmia-associated transcription factor (Homo sapiens) (UniProt O75030). Description: MITF inhibitors by FRET titration, dose response, biochemical, high throughput (AID 1259375).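 Further: FRET between CFP-tagged and YFP-tagged MITF protein partners.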 To be noted: FRET biochemical assay, MITF inhibition.

The structures appear in SMILES notation. Active and inactive are the calls of the source. How the calls were made is not given here.

Sequence of Microphthalmia-associated transcription factor (Homo sapiens) (O75030 whole entry, looked up): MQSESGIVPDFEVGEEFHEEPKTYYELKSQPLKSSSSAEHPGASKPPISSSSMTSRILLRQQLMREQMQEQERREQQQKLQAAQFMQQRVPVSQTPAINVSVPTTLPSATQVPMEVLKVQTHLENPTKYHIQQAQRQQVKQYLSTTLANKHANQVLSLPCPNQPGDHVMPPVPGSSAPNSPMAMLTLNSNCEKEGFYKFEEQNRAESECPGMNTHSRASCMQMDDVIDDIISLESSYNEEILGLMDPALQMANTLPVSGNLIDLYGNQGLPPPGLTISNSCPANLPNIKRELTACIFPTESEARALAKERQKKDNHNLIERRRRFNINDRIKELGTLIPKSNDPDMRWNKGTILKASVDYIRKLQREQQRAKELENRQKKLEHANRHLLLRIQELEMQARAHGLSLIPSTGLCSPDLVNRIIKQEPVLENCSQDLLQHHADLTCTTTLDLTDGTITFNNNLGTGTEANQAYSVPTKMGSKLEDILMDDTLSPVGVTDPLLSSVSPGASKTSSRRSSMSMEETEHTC

As for `O=C(OC1CCCC1=O)c1ccc(S(=O)(=O)N2CCCCC2)cc1` (configuration not stated), the IC50 is > 6.64 µM (inactive).

Consider `NC(=O)c1ccc(-c2cccs2)s1`, for which the IC50 is > 7.32 µM (inactive). The same measure for `OC[C@H]1OC([S-])[C@H](O)[C@@H](O)[C@@H]1O.[Au+]` (some centres not stated): > 6.48 µM (inactive); for `CN(C)CCCNC(=O)c1cccc(CN(C(=O)c2nc3ccc(-c4cn[nH]c4)cc3s2)C2CC2)c1`: > 6.48 µM (inactive); for `O=C(c1ccc(=O)oc1)N1CCc2ccccc21`: > 7.53 µM (inactive). As for `O=C(COC(=O)/C=C/c1ccco1)NCc1ccco1`, the IC50 was > 6.6 µM (inactive). Regarding `COC(=O)c1ccc(=O)c2nc3/c(=C/O)c(O)cc(=O)c3[nH]c12`, the half-inhibitory concentration (IC50) was 2.02 µM.

Take `Nc1cccc(N2C(=O)c3cc(S(=O)O)cc4c(N)c(S(=O)O)cc(c34)C2=O)c1`: the IC50 is > 6.48 µM (inactive). The value for `CN(C)CCN(C(=O)OCc1ccccc1)c1cc(-c2cn[nH]c2)ccc1NC(=O)OCc1ccccc1` was > 6.48 µM (inactive); that for `NC(=O)/C(=C\c1cccc([N+](=O)[O-])c1)NC(=O)c1ccc(Br)cc1` was > 6.48 µM (inactive). With `c1ccc(-c2ccc(OCCCCn3cncn3)cc2)cc1`, the IC50 was > 6.48 µM (inactive). On to `O=C(NCCO)c1ccc2nc(-c3ccco3)c(-c3ccco3)nc2c1`, for which the IC50 was 1.8 µM.

As for `O=C(NCCO)c1cccc(-c2cccs2)c1`, the IC50 is > 8.06 µM (inactive). The same measure for `O=C(NCc1ccccc1)N1CCN2C(=O)[C@@H]3CCCN3C(=O)[C@H]2C1`: > 6.48 µM (inactive); for `COc1ccc(OC)c(NC(=O)c2cc3ccc(O)cc3oc2=Nc2ccc(C(=O)O)cc2)c1`: > 5.54 µM (inactive).

With `Cc1cccc(C(=O)Nc2c3c(nn2-c2ccc(F)cc2)CSC3)c1`, the IC50 is > 5.53 µM (inactive). The value for `CCC(C)c1ccccc1OCCNCCN(C)C` (configuration not stated) was > 6.48 µM (inactive). In the case of `O=C1c2c(O)cccc2Cc2cccc(O)c21`, the IC50 was > 6.48 µM (inactive). The value for `O=C(O)c1cc(NN=C2CCCC2)ccc1Cl` was > 7.18 µM (inactive); that for `O=C(O)c1cc(N/N=C/c2ccc(N3CCOCC3)s2)ccc1Cl` was 3.77 µM; that for `Cc1ccc(C(=O)N/C(=C/c2ccc([N+](=O)[O-])o2)C(=O)O)cc1` was > 5.88 µM (inactive). The same measure for `CC(=O)CC1=C(C(=O)O)N2C(=O)C(N)C2SC1` (configuration not stated): > 6.48 µM (inactive). Regarding `N=C1S/C(=C\c2ccco2)C(=O)N1c1nonc1N`, the IC50 is 3.61 µM. As to `CCc1ccc(NC(=O)CS(=O)CC(=O)NCCCc2ccccc2)cc1` (configuration not stated), the IC50 is > 6.48 µM (inactive). The same measure for `O=C(OC1CCCC1=O)c1ccc(N2CCCC2=O)cc1` (configuration not stated): > 7.22 µM (inactive). The same measure for `O=C(OC1(C(F)(F)F)C(=O)Nc2cc3c(cc21)OCO3)c1ccc(Cl)nc1` (configuration not stated): 3.84 µM. The same measure for `CN(C)C(=O)N1CCN(S(=O)(=O)c2cccc([N+](=O)[O-])c2)CC1`: > 6.48 µM (inactive); for `O=C(Nc1ccc(N2CCOCC2)cc1)c1ccc2nc(-c3cccs3)sc2c1`: > 7.76 µM (inactive); for `Cc1ccc(O)c(NC(=S)NC(=O)/C=C/c2ccco2)c1`: > 6.48 µM (inactive). As to `C=CC1=C(C)C2=Cc3c(C=C)c(C)c4[n]3[Sn+2][n]3c(c(C)c(CCC(=O)O)c3=CC3=NC(=C4)C(C)=C3CCC(=O)O)=CC1=N2`, the IC50 is > 6.48 µM (inactive). With `O=C(OC1CCCC1=O)c1ccc(Cl)c(S(=O)(=O)N2CCOCC2)c1` (configuration not stated), the IC50 was > 6.69 µM (inactive). The value for `O=C(/C=C/c1ccc(-c2cccc(C(F)(F)F)c2)o1)c1ccco1` was > 6.63 µM (inactive); that for `CN1C(=O)[C@H]2CN(C(=O)NC3CCCCC3)CCN2C(=O)[C@@H]1Cc1ccccc1` was > 6.48 µM (inactive); that for `O=C1N[C@@H](CSCc2ccccc2)C(=O)N2CCN(C(=O)NC3CCCCC3)C[C@H]12` was > 6.48 µM (inactive). The same measure for `C[C@@H](OCc1ccccc1)[C@@H]1NC(=O)[C@H]2CN(C(=O)NCc3ccccc3)CCN2C1=O`: > 6.48 µM (inactive); for `CCC(C)C(=O)NCc1nnc2n1CCN(C/C=C/c1ccco1)CC2` (configuration not stated): > 6.48 µM (inactive); for `COc1ccc(OC)c(CN2CCN(Cc3ccc(F)cc3)CC2)c1`: > 6.11 µM (inactive). The same measure for `C[C@@H](O)[C@@H]1NC(=O)[C@H]2CN(C(=O)NCc3ccccc3)CCN2C1=O`: > 6.48 µM (inactive).

For the compound `O=C(NC1CCCCC1)N1CCN2C(=O)[C@@H]3C[C@@H](O)CN3C(=O)[C@H]2C1`, the IC50 was > 6.48 µM (inactive). Take `CN(C)[C@@H]1C(=O)C(C(N)=O)=C(O)[C@@]2(O)C(=O)C3=C(O)c4c(O)cccc4[C@@](C)(O)[C@H]3[C@H](O)[C@@H]12`: the IC50 is 4.11 µM. Regarding `O=C(/C=C/c1ccco1)NCCCCCCNC(=O)/C=C/c1ccco1`, the IC50 was > 6.48 µM (inactive).

Consider `CC(O)C(=O)N/N=C/C=C/c1ccc([N+](=O)[O-])o1` (configuration not stated), for which the IC50 is > 7.17 µM (inactive). The value for `Cc1cccc(CN2CCN(C3CCC(C)CC3)CC2)c1` (configuration not stated) was > 5.54 µM (inactive).

Turning to `C[C@@H](OCc1ccccc1)[C@@H]1NC(=O)[C@H]2CN(C(=O)Nc3cccc(F)c3)CCN2C1=O`, the IC50 is > 6.48 µM (inactive). The value for `Cc1cc(O)c2c(c1)Cc1cccc(O)c1C2=O` was > 6.48 µM (inactive); that for `CN(C)/C=C/C=C/C(=O)C1CCC/C(=C\C=C\N(C)C)C1=O` (configuration not stated) was > 6.48 µM (inactive); that for `CCCCNCCOc1ccccc1OCC` was > 6.48 µM (inactive). Turning to `N#CC1=c2/c(=C/c3ccco3)c(N)c(C#N)n2C(=O)C(c2ccco2)S1` (configuration not stated), the IC50 is 2.64 µM. The same measure for `CC(=O)NS(=O)(=O)c1ccc(NC(=O)c2ccc([N+](=O)[O-])o2)cc1`: > 6.61 µM (inactive); for `CC1=C(C#N)C(c2cc3c(cc2[N+](=O)[O-])OCO3)C2=C(CCCC2=O)N1` (configuration not stated): > 6.48 µM (inactive). The value for `CC(C)N(C)CCOC(=O)/C=C/c1ccco1` was > 6.48 µM (inactive); that for `Cc1cccc(N2CCN(C(=O)/C=C\C(=O)O)CC2)c1C` was > 6.48 µM (inactive); that for `O=C(Nc1ccc(Oc2ccccc2)cc1)c1ccnc(-c2cccs2)c1` was > 6.71 µM (inactive).

As to `COc1cc(N2CCOCC2)ccc1Nc1cc(NC(C)(C)c2ccccc2)c(C(F)(F)F)cn1`, the IC50 is > 6.48 µM (inactive). The same measure for `O=c1c2ccccc2nc(-c2ccccc2)n1-c1ccccc1O`: > 6.5 µM (inactive); for `Cc1cc(C)n2nc(N)c(N)c2n1`: > 11.6 µM (inactive). The same measure for `O=C(NC1CCN(Cc2ccccc2)CC1)c1ccc2nc(-c3cccs3)sc2c1`: > 6.38 µM (inactive); for `CCN(CC)CC(=O)Nc1ccc(OC)cc1`: > 6.48 µM (inactive); for `N#Cc1c(-c2ccc3c(c2)OCO3)nc(N2CCCCC2)[nH]c1=O`: > 6.48 µM (inactive). The same measure for `O=C(Nc1ccc(N2CCOCC2)cc1)c1ccnc(Nc2ncccn2)c1`: > 7.06 µM (inactive); for `O=Cc1cccn1-c1ccc(C(=O)O)cc1`: > 6.48 µM (inactive); for `CC(O)(CNCCN1CCOCC1)COc1ccc(Cl)cc1` (configuration not stated): > 6.31 µM (inactive).

A word on the IC50: it is the point on the concentration scale where inhibition reaches its midpoint.
